Data published in patent US20250313574A1, “SIALIC ACID DERIVATIVES AND METHODS OF USING SAME” (EISAI R&D MANAGEMENT CO., LTD., priority 2022, published 2025).

Assays:
[1] = biological target: Recombinant human CD33 protein (Homo sapiens (Human), UniProt P20138); experiment: CD33 competitive binding assay for HTS drug screen (fluorescent multivalent sialic acid probe)
Summary of the method: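 Inhibition was read as reduced retention of a fluorescent multivalent sialic acid complex (final 5 μM neutravidin, 15 μM A-375, 5 μM biotin-4-FITC) on plate-immobilized human CD33. Compound was added first, the probe followed for 30 min at room temperature in PBS with 0.2% Tween-20 and 0.5% BSA, and FITC was measured after a wash.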

[2] = biological target: Recombinant Human Siglec-3/CD33 protein (His-CD33) (Homo sapiens (Human), UniProt P20138); experiment: Differential scanning fluorimetry (DSF) thermal shift assay; assay type: binding
[3] = thermal melt shift of 0.5 μM CD33 protein with 50 μM compound
[4] = difference in thermal melt of CD33 protein (0.5 μM) with 50 μM compound

Chain of Recombinant human CD33 protein (P20138 18-259): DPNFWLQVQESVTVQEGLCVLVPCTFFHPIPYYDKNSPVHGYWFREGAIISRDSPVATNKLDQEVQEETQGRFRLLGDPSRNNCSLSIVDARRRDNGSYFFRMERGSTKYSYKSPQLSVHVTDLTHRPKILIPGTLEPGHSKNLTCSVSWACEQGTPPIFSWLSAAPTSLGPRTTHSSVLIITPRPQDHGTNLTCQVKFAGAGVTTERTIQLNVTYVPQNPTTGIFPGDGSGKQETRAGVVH
Chain of Recombinant Human Siglec-3/CD33 protein (His-CD33) (P20138 18-259): as above

## CC(=O)N[C@H]1[C@H]([C@H](O)[C@H](O)CNC(=O)c2cc(C)c(O)c(C)c2)O[C@@](CCCC2(C)CCN(C(=O)OC(C)(C)C)C2)(C(=O)O)C[C@@H]1O (some centres unmarked) [A-196]
[1]
  EC50: 257 nM
[2]; [3]
  DSF (dTmD): 7.7

## COc1ccc(C(=O)NC[C@@H](O)[C@@H](O)[C@@H]2O[C@@](CCN3CCOC[C@@]34CCN(C(=O)OC(C)(C)C)C4)(C(=O)O)C[C@H](O)[C@H]2NC(C)=O)cc1OC [A-120]
[1]
  EC50: 40 nM
[2]; [3]
  DSF (dTmD): 12.2

## Cc1cc(C(=O)NC[C@@H](O)[C@@H](O)[C@@H]2O[C@@](C/C=C/c3cccc(CNC(=O)C4CCCOC4)c3)(C(=O)O)C[C@H](O)[C@H]2NC(=O)Cn2cc(C3CCCCC3)nn2)cc(C)c1O (some centres unmarked) [A-268]
[1]
  EC50: 1320 nM
[2]; [4]
  DSF (dTmD): 6.2 °C

## CC(=O)N[C@H]1[C@H]([C@H](O)[C@H](O)CNC(=O)c2cc(C)c(O)c(C)c2)O[C@@](CCN2CCOC[C@@]23CCN(C(=O)c2ccc(C)cc2)C3)(C(=O)O)C[C@@H]1O [A-099]
[1]
  EC50: 342 nM
[2]; [3]
  DSF (dTmD): 7.3

## CC(=O)N[C@H]1[C@H]([C@H](O)[C@H](O)CNC(=O)c2cc(C)c(O)c(C)c2)O[C@@](CCN2CCOC[C@@]23CCN(C(=O)N(C)C)C3)(C(=O)O)C[C@@H]1O [A-064]
[1]
  EC50: 3500 nM
[2]; [3]
  DSF (dTmD): 3.5

## Cc1cc2cc(C)c1OCCOC[C@@H](NC(=O)C1CCCOC1)COC/C=C/C[C@]1(C(=O)O)C[C@H](O)[C@@H](NC(=O)Cn3cc(C4CCCCC4)nn3)[C@@H](O1)[C@H](O)[C@H](O)CNC2=O (some centres unmarked) [A-338]
[1]
  EC50: 3820 nM
[2]; [4]
  DSF (dTmD): 5.6 °C

## CC(=O)N[C@H]1[C@H]([C@H](O)[C@H](O)CNC(=O)c2cc(C)c(O)c(C)c2)O[C@@](CCN2C(C)CCC23CCN(C(=O)OC(C)(C)C)C3)(C(=O)O)C[C@@H]1O (some centres unmarked) [A-025]
[1]
  EC50: 115 nM
[2]; [3]
  DSF (dTmD): 10.0

## CCC/C(C)=C/C(=O)NC[C@@H](O)[C@@H](O)[C@@H]1O[C@@](CCN2CCOC[C@@]23CCN(C(=O)OC(C)(C)C)C3)(C(=O)O)C[C@H](O)[C@H]1NC(C)=O [A-162]
[1]
  EC50: 4210 nM
[2]; [3]
  DSF (dTmD): 4.8

## CC(=O)N[C@H]1[C@H]([C@H](O)[C@H](O)CNC(=O)c2cc(C)c(O)c(C)c2)O[C@@](CCN2CCOCC2(C)CNC(=O)OC(C)(C)C)(C(=O)O)C[C@@H]1O (some centres unmarked) [A-009]
[1]
  EC50: 2000 nM
[2]; [3]
  DSF (dTmD): 6.1

## CC(=O)N[C@H]1[C@H]([C@H](O)[C@H](O)CNC(=O)c2cc(Br)ccc2F)O[C@@](CCN2CCOC[C@@]23CCN(C(=O)OC(C)(C)C)C3)(C(=O)O)C[C@@H]1O [A-172]
[1]
  EC50: 820 nM
[2]; [3]
  DSF (dTmD): 7.6

## CC(=O)N[C@H]1[C@H]([C@H](O)[C@H](O)CNC(=O)c2ccc(C)c(C(F)(F)F)c2)O[C@@](CCN2CCOC[C@@]23CCN(C(=O)OC(C)(C)C)C3)(C(=O)O)C[C@@H]1O [A-145]
[1]
  EC50: 610 nM
[2]; [3]
  DSF (dTmD): 9.6

## Cc1cc(C(=O)NC[C@@H](O)[C@@H](O)[C@@H]2O[C@@](C/C=C/c3cccc(CNC(=O)C4CCCO4)c3)(C(=O)O)C[C@H](O)[C@H]2NC(=O)Cn2cc(C3CCCCC3)nn2)cc(C)c1O (some centres unmarked) [A-267]
[1]
  EC50: 9170 nM
[2]; [4]
  DSF (dTmD): 3.8 °C

## Cc1cc(C(=O)NC[C@@H](O)[C@@H](O)[C@@H]2O[C@@](OC3CCCCC3NC(=O)CN(C)C(=O)OCc3ccccc3)(C(=O)O)C[C@H](O)[C@H]2NC(=O)Cn2cc(C3CCCCC3)nn2)cc(C)c1O (some centres unmarked) [A-325]
[1]
  EC50: 13200 nM
[2]; [4]
  DSF (dTmD): 3.3 °C

## CC(=O)N[C@H]1[C@H]([C@H](O)[C@H](O)CNC(=O)c2cnc3[nH]nc(C)c3c2)O[C@@](CCN2CCOC[C@@]23CCN(C(=O)OC(C)(C)C)C3)(C(=O)O)C[C@@H]1O [A-127]
[1]
  EC50: 59 nM
[2]; [3]
  DSF (dTmD): 11.7

## CC(=O)N[C@H]1[C@H]([C@H](O)[C@H](O)CNC(=O)c2cc(C)c(O)c(C)c2)O[C@@](C/C=C/c2cccc(CNC(=O)c3cccc(NC(C)(C)C)c3)c2)(C(=O)O)C[C@@H]1O [A-251]
[1]
  EC50: 9790 nM
[2]; [4]
  DSF (dTmD): 4.3 °C

## CC(=O)N[C@H]1[C@H]([C@H](O)[C@H](O)CNC(=O)c2cc(C)c(O)c(C)c2)O[C@@](CCN2CCCC23CN(C(=O)OC(C)(C)C)C3)(C(=O)O)C[C@@H]1O [A-017]
[1]
  EC50: 1560 nM
[2]; [3]
  DSF (dTmD): 1.2

## CC(=O)N[C@H]1[C@H]([C@H](O)[C@H](O)CNC(=O)c2cc(C)c(O)c(C)c2)O[C@@](CCN2CCOC[C@@]23CCN(C(=O)OC(C)(C)C)C3)(C(=O)NS(=O)(=O)c2ccccc2)C[C@@H]1O [A-368]
[1]
  EC50: 15000 nM
[2]; [4]
  DSF (dTmD): −0.1 °C

## CC(=O)N[C@H]1[C@H]([C@H](O)[C@H](O)CNC(=O)c2cc(F)c(C(F)(F)F)c(F)c2)O[C@@](CCN2CCOC[C@@]23CCN(C(=O)OC(C)(C)C)C3)(C(=O)O)C[C@@H]1O [A-166]
[1]
  EC50: 4000 nM
[2]; [3]
  DSF (dTmD): 6.9

## CC(=O)N[C@H]1[C@H]([C@H](O)[C@H](O)CNC(=O)c2cc(C)c(O)c(C)c2)O[C@@](C/C=C/c2cccc(CNC(=O)C3CCC(Nc4ncccn4)C3)c2)(C(=O)O)C[C@@H]1O (some centres unmarked) [A-255]
[1]
  EC50: 4460 nM
[2]; [4]
  DSF (dTmD): 4.2 °C

## CC(=O)N[C@H]1[C@H]([C@H](O)[C@H](O)CNC(=O)c2cc(C)c(O)c(C)c2)O[C@@](C/C=C/c2cc(CNC(=O)C3CCCOC3)ccc2C)(C(=O)O)C[C@@H]1O (some centres unmarked) [A-289]
[1]
  EC50: 2680 nM
[2]; [4]
  DSF (dTmD): 5.3 °C

## CC(=O)N[C@H]1[C@H]([C@H](O)[C@](C)(O)CNC(=O)c2cc(C)c(O)c(C)c2)O[C@@](CCN2CCOC[C@@]23CCN(C(=O)OC(C)(C)C)C3)(C(=O)O)C[C@@H]1O [A-204]
[1]
  EC50: 582 nM
[2]; [4]
  DSF (dTmD): 5.0 °C

## CC(=O)NC1[C@H]([C@H](O)[C@H](O)CNC(=O)c2cc(C)c(O)c(C)c2)O[C@@](CC(=O)N2CCOC[C@@]23CCN(C(=O)OC(C)(C)C)C3)(C(=O)O)C[C@@H]1O (some centres unmarked) [A-221]
[1]
  EC50: 162 nM
[2]; [4]
  DSF (dTmD): 7.0 °C

## Cc1cc(C(=O)NC[C@@H](O)[C@@H](O)[C@@H]2O[C@@](OC3CCCCC3NC(=O)CNC(=O)OCc3ccccc3)(C(=O)O)C[C@H](O)[C@H]2NC(=O)Cn2cc(C3CCCCC3)nn2)cc(C)c1O (some centres unmarked) [A-324]
[1]
  EC50: 3670 nM
[2]; [4]
  DSF (dTmD): 3.2 °C

## CC(=O)N[C@H]1[C@H]([C@H](O)[C@H](O)CNC(=O)c2cc(C)c(O)c(C)c2)O[C@@](CCN2CCN(C)C[C@]23CCN(C(=O)OC(C)(C)C)C3)(C(=O)O)C[C@@H]1O [A-011]
[1]
  EC50: 1630 nM
[2]; [3]
  DSF (dTmD): 3.9

## C=CC[C@@]1(NCC[C@]2(C(=O)O)C[C@H](O)[C@@H](NC(C)=O)[C@H]([C@H](O)[C@H](O)CNC(=O)c3cc(C)c(O)c(C)c3)O2)CCN(C(=O)OC(C)(C)C)C1 [A-032]
[1]
  EC50: 181 nM
[2]; [3]
  DSF (dTmD): 8.4

## Cc1cc(C(=O)NC[C@@H](O)[C@@H](O)[C@@H]2O[C@@](C/C=C/c3cccc(CNC(=O)c4ccccc4C(F)(F)F)c3)(C(=O)O)C[C@H](O)[C@H]2NC(=O)Cn2cc(C3CCCCC3)nn2)cc(C)c1O [A-269]
[1]
  EC50: 3460 nM
[2]; [4]
  DSF (dTmD): 6.5 °C

## CC(=O)N[C@H]1[C@H]([C@H](O)[C@H](O)CNC(=O)c2ccc3[nH]cnc3c2)O[C@@](CCN2CCOC[C@@]23CCN(C(=O)OC(C)(C)C)C3)(C(=O)O)C[C@@H]1O [A-135]
[1]
  EC50: 101 nM
[2]; [3]
  DSF (dTmD): 9.6

## CC(=O)N[C@H]1[C@H]([C@H](O)[C@H](O)CNC(=O)c2cc(C)c(O)c(C)c2)O[C@@](C/C=C/C2(C)CCN(C(=O)OC(C)(C)C)C2)(C(=O)O)C[C@@H]1O (some centres unmarked) [A-195]
[1]
  EC50: 42 nM
[2]; [3]
  DSF (dTmD): 10.8

## CC(=O)N[C@H]1[C@H]2O[C@](C(=O)O)(C/C=C/c3cccc(c3)[C@@H](NC(=O)[C@@H]3CCCOC3)CCCCOc3c(C)cc(cc3C)C(=O)NC[C@@H](O)[C@H]2O)C[C@@H]1O [A-349]
[1]
  EC50: 5240 nM
[2]; [4]
  DSF (dTmD): 5.5 °C

## CC(=O)N[C@H]1[C@H]([C@H](O)[C@H](O)CNC(=O)c2cc(C)c(O)c(C)c2)O[C@@](C/C=C/c2cccc(CNC(=O)c3ccc4[nH]c(C)c(C)c4c3)c2)(C(=O)O)C[C@@H]1O [A-238]
[1]
  EC50: 347 nM
[2]; [4]
  DSF (dTmD): 9.2 °C

## CC(=O)N[C@H]1[C@H]([C@H](O)[C@H](O)CNC(=O)c2cc(C)c(O)c(C)c2)O[C@@](CC2OC(C)(C)O[C@H]2c2cccc3c2CN(C(=O)OC(C)(C)C)C3)(C(=O)O)C[C@@H]1O (some centres unmarked) [A-314]
[1]
  EC50: 7850 nM
[2]; [4]
  DSF (dTmD): 0.1 °C

## CC(=O)N[C@H]1[C@H]([C@H](O)[C@H](O)CNC(=O)c2cc(C)c(O)c(C)c2)O[C@@](CC2OC(C)(C)O[C@H]2c2cccc(CN3CCOCC3)c2)(C(=O)O)C[C@@H]1O (some centres unmarked) [A-313]
[1]
  EC50: 11900 nM
[2]; [4]
  DSF (dTmD): 0.0 °C

## Cc1cc(C(=O)NC[C@@H](O)[C@@H](O)[C@@H]2O[C@@](C/C=C/c3cccc(CNC(=O)OC(C)(C)C)c3)(C(=O)O)C[C@H](O)[C@H]2NC(=O)Cn2cc(C3CCCCC3)nn2)cc(C)c1O [A-285]
[1]
  EC50: 9980 nM
[2]; [4]
  DSF (dTmD): 9.0 °C

## CC(=O)N[C@H]1[C@H]([C@H](O)[C@H](O)CNC(=O)c2cc(C)c(O)c(C)c2)O[C@](C#N)(CCN2CCOC[C@@]23CCN(C(=O)OC(C)(C)C)C3)C[C@@H]1O [A-362]
[1]
  EC50: > 100000 nM
[2]; [4]
  DSF (dTmD): −0.3 °C
